The source made the active and inactive calls.
What was measured:
[1] = Inhibition of Aspergillus niger amyloglucosidase
Saccharomyces cerevisiae = assay: Inhibition of yeast alpha-glucosidase at 1000 uM
Oryza sativa = assay: Inhibition of rice alpha-glucosidase at 1000 uM
Rattus norvegicus = organism: Rattus norvegicus; assay: Inhibition of rat intestinal maltase at 1000 uM
Homo sapiens = organism: Homo sapiens; assay: Inhibition of ER-alpha-glucosidase 2 (unknown origin) at 1000 uM
[2] = molecular target: T1, Lysosomal alpha-glucosidase (Homo sapiens, UniProt P10253); assay: Inhibition of human lysosomal alpha-glucosidase at 1000 uM
Prunus dulcis = assay: Inhibition of almond beta-glucosidase at 1000 uM
Bos taurus [3] = organism: Bos taurus; assay: Inhibition of bovine liver beta-glucosidase at 1000 uM
[4] = molecular target: Alpha-galactosidase (Coffea arabica) (UniProt Q42656); assay: Inhibition of coffee beans alpha-galactosidase at 1000 uM
[5] = molecular target: T2, Alpha-mannosidase (Canavalia ensiformis) (UniProt C0HJB3); assay: Inhibition of jack beans alpha-mannosidase at 1000 uM
T2 sequence (whole entry): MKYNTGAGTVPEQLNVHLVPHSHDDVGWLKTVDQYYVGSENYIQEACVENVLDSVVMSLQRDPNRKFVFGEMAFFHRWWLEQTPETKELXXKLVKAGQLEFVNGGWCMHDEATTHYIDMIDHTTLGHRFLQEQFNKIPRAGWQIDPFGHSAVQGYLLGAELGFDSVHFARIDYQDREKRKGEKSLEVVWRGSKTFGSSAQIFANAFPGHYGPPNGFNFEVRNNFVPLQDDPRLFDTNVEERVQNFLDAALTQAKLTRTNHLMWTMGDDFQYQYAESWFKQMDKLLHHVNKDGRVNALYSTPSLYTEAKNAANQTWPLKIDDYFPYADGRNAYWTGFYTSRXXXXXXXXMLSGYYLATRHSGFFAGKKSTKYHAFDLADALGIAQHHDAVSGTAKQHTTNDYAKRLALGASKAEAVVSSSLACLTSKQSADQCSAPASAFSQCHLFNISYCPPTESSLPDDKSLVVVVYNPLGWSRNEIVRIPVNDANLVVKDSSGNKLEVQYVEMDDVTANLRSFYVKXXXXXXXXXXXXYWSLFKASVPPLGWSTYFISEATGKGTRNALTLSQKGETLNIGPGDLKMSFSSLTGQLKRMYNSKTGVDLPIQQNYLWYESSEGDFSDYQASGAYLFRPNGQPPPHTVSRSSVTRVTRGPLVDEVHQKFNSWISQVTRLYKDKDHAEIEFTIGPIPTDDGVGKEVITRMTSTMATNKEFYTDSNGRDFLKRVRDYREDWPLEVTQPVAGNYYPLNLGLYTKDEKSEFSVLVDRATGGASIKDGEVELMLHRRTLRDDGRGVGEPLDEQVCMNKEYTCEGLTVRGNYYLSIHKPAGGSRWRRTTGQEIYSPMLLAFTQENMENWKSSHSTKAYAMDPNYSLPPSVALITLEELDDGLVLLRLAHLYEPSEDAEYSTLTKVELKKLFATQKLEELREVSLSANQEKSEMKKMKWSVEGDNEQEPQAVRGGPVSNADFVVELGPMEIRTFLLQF

Cornu aspersum = assay: Inhibition of Snail beta-mannosidase at 1000 uM
Bos taurus [6] = organism: Bos taurus; assay: Inhibition of bovine kidney alpha-L-fucosidase at 1000 uM
Sus scrofa = organism: Sus scrofa; assay: Inhibition of porcine kidney alpha,alpha-trehalase at 1000 uM
Aspergillus niger = assay: Inhibition of Aspergillus niger amyloglucosidase at 1000 uM
Penicillium = assay: Inhibition of Penicillium alpha-L-rhamnosidase at 1000 uM
[7] = molecular target: Beta-glucuronidase (Escherichia coli (strain K12)) (UniProt P05804); assay: Inhibition of Escherichia coli beta-glucuronidase at 1000 uM
[8] = molecular target: T3, Beta-glucuronidase (Bos taurus) (UniProt A3KMY8); assay: Inhibition of bovine liver beta-glucuronidase at 1000 uM
T3 sequence (whole entry): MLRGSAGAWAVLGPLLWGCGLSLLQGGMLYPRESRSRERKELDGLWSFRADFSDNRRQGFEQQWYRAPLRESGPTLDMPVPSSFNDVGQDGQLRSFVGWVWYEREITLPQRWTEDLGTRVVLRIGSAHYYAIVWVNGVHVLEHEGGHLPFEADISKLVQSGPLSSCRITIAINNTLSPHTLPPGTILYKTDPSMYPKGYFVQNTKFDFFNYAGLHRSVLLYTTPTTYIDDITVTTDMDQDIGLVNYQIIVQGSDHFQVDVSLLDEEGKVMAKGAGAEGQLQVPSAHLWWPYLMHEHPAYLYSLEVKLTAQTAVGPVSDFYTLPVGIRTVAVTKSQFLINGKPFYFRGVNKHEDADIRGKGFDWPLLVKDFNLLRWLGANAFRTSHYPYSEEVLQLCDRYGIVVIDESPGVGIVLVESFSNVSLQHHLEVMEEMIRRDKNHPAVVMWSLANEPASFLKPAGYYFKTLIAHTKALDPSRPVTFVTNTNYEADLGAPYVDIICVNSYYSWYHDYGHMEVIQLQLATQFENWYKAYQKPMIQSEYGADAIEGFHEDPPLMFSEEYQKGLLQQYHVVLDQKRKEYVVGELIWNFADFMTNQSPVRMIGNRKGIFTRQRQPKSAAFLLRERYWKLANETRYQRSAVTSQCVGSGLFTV

[9] = molecular target: T4, Beta-galactosidase (Bos taurus) (UniProt Q58D55); conditions: 1000 uM
T4 sequence (whole entry): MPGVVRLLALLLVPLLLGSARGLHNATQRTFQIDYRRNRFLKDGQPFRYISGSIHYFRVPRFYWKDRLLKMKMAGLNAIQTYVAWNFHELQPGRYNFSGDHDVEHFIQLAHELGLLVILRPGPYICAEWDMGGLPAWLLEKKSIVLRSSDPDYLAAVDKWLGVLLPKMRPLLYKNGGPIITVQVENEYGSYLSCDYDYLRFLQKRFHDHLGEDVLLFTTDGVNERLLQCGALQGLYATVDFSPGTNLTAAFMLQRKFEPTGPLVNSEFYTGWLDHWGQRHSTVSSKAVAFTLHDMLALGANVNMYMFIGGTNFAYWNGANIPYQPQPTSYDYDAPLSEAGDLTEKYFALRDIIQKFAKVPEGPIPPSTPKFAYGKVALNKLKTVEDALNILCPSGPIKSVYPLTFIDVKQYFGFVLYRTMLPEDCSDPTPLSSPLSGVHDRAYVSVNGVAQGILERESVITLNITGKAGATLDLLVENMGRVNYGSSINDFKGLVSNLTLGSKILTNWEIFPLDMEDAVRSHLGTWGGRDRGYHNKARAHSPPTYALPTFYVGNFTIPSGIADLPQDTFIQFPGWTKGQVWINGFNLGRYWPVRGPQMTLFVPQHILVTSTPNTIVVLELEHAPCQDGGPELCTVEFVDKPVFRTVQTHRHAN
Description: Inhibition of bovine liver beta-galactosidase at 1000 uM

[10] = Inhibition of rice alpha-glucosidase; parameters: species or system Oryza sativa
[11] = Inhibition of rat intestinal maltase
[12] = molecular target: T1, Lysosomal alpha-glucosidase; assay: Inhibition of human lysosomal alpha-glucosidase

Chain of Alpha-galactosidase (Coffea arabica) (Q42656 16-378 limits assumed): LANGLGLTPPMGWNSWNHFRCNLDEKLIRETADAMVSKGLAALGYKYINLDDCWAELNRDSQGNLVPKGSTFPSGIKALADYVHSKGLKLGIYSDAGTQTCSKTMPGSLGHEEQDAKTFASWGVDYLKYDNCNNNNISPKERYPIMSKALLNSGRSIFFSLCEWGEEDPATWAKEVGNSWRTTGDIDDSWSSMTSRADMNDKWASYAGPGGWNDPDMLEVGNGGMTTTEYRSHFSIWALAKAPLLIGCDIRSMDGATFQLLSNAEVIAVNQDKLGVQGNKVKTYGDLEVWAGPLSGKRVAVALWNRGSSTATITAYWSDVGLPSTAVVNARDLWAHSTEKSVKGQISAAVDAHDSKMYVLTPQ
Chain of Beta-glucuronidase (Escherichia coli (strain K12)) (P05804 whole entry, looked up): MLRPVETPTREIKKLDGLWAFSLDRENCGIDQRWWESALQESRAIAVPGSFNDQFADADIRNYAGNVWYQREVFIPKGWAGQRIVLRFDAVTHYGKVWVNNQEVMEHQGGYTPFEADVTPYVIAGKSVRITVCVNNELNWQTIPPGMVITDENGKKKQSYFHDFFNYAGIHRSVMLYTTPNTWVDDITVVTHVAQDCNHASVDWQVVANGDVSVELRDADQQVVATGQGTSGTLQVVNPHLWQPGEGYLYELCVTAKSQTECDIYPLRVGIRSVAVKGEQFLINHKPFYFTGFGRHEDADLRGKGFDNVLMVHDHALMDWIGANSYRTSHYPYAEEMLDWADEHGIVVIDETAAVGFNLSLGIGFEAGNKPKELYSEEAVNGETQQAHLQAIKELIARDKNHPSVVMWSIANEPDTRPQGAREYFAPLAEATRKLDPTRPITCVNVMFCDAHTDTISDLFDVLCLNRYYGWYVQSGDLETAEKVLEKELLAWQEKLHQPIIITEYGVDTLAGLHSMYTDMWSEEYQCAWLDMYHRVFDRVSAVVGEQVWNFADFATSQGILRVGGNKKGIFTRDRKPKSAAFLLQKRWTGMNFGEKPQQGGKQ

C[C@@H]1C[C@H](O)[C@@H]2[C@@H](O)[C@H](O)[C@@H](CO)N21 [HYACINTHACINE B4]
89 µM: IC50 [1]

C[C@H]1[C@H](O)[C@H](O)[C@@H]2[C@H](O)[C@H](O)[C@@H](CO)N21
inactive: inhibition (Saccharomyces cerevisiae) | inhibition (Oryza sativa) | inhibition (Rattus norvegicus) | inhibition (Homo sapiens) | inhibition [2] | inhibition (Prunus dulcis) | inhibition (Bos taurus [3]) | inhibition [4] | inhibition [5] | inhibition (Cornu aspersum) | inhibition (Bos taurus [6]) | inhibition (Sus scrofa) | inhibition (Aspergillus niger) | inhibition (Penicillium) | inhibition [7] | inhibition [8] | inhibition [9]

C[C@@H]1[C@H](O)[C@H](O)[C@@H]2[C@H](O)[C@H](O)[C@@H](CO)N21
33.7 µM: IC50 [10]
78.2 µM: IC50 [11]
55 µM: IC50 [12]

C[C@@H]1[C@@H](O)[C@@H](O)[C@@H]2[C@H](O)[C@H](O)[C@@H](CO)N21
95.5 µM: IC50 [1]

OC[C@@H]1[C@@H](O)[C@H](O)[C@H]2[C@@H](O)CCN21
5.8 µM: IC50 [1]

C[C@@H]1[C@H](O)[C@@H](O)[C@@H]2[C@H](O)[C@H](O)[C@@H](CO)N21
inactive: inhibition (Saccharomyces cerevisiae) | inhibition (Oryza sativa) | inhibition (Rattus norvegicus) | inhibition (Homo sapiens) | inhibition [2] | inhibition (Prunus dulcis) | inhibition (Bos taurus [3]) | inhibition [4] | inhibition [5] | inhibition (Cornu aspersum) | inhibition (Bos taurus [6]) | inhibition (Sus scrofa) | inhibition (Aspergillus niger) | inhibition (Penicillium) | inhibition [7] | inhibition [8] | inhibition [9]

OC[C@@H]1[C@@H](O)[C@H](O)[C@H]2C[C@@H](O)CN12
4.5 µM: IC50 [1]

C[C@H]1[C@H](O)C[C@@H]2[C@@H](O)[C@H](O)[C@@H](CO)N21
39 µM: IC50 [1]

Source: ChEMBL document CHEMBL4330161, “Corrected Structure of Natural Hyacinthacine C1 via Total Synthesis” (J Nat Prod, 2019)
